{
  "source": "patent US10328053B2",
  "about": "(Gilead Sciences, Inc., priority 2016, dated 2019)",
  "key": {"[1]": {"test_system": "HBV AD38 viral particles in HepG2 cell line overexpressing NTCP", "test": "HBV DNA Quantification Assay", "format": "cell-based", "conditions": "Hepatitis B virus, HepG2, 120 h, HBV-infected HepG2-NTCP cells, 5 days incubation, HBV DNA in culture supernatant (QuantiGene 2.0); geometric mean of a minimum of four determinations", "summary_of_the_method": "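NTCP-overexpressing HepG2 cells infected with AD38 virus at 4000 genome equivalents/cell for 4 days, then reseeded with serially diluted compound in DMEM, 2% FBS, 1% DMSO for 5 days.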"}, "[2]": {"test_system": "pooled cryopreserved hepatocytes", "test": "Hepatic Stability Assay (in vitro half-life method)", "format": "in vitro ADME", "design": "dose or concentration left out as unconfirmed", "conditions": "37° C., 1×10^6 cells/mL, 0-6 hours, LC-MS/MS, 39.5 hours is the maximum detectable half life", "summary_of_the_method": "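Pooled cryopreserved hepatocytes (1×10^6 cells/mL) incubated with compound at […] test concentration, 37° C.; samples at 0, 1, 3 and 6 h quantified by LC-MS/MS. Half-life from rate of compound disappearance, scaled to predicted hepatic clearance via well-stirred model.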"}},
  "data": [
    {"smiles": "CNC(=O)C1(NC(=O)C(=O)c2c(C)c(C(=O)Nc3ccc(F)c(C#N)c3)n3c2CCC3)CC(F)(F)C1", "note": "[Example 35, N-(3-cyano-4-fluorophenyl)-7-(2-((3,3-difluoro-1-(methylcarbamoyl)cyclobutyl)amino)-2-oxoacetyl)-6-methyl-2,3-dihydro-1H-pyrrolizine-5-carboxamide]", "values": [
      {"measurement": "EC50", "setting": "[1]", "value": 109, "unit": "nM"},
      {"measurement": "t½", "setting": "[2]", "value": 39.5, "unit": "h"}
    ]},
    {"smiles": "CNC(=O)C1(NC(=O)C(=O)c2c(C)c(C(=O)Nc3ccc(F)c(F)c3)n3c2CCC3)CC(F)(F)C1", "note": "[Example 44, 7-(2-((3,3-difluoro-1-(methylcarbamoyl)cyclobutyl)amino)-2-oxoacetyl)-N-(3,4-difluorophenyl)-6-methyl-2,3-dihydro-1H-pyrrolizine-5-carboxamide]", "values": [
      {"measurement": "EC50", "setting": "[1]", "value": 31, "unit": "nM"},
      {"measurement": "t½", "setting": "[2]", "value": 39.5, "unit": "h"}
    ]},
    {"smiles": "Cc1c(C(=O)C(=O)NC2(C)CS(=O)(=O)C2)c2n(c1C(=O)Nc1ccc(F)c(C#N)c1)[C@@H]1C[C@@H]1C2", "note": "[Example 72, (1aR,6aR)—N-(3-cyano-4-fluorophenyl)-4-methyl-5-(2-((3-methyl-1,1-dioxidothietan-3-yl)amino)-2-oxoacetyl)-1,1a,6,6a-tetrahydrocyclopropa[b]pyrrolizine-3-carboxamide]", "values": [
      {"measurement": "t½", "setting": "[2]", "value": 39.5, "unit": "h"}
    ]},
    {"smiles": "CNC(=O)C1(NC(=O)C(=O)c2c(C)c(C(=O)Nc3cccc(C(F)F)c3)n3c2CCC3)CC(F)(F)C1", "note": "[Example 115, 7-(2-((3,3-difluoro-1-(methylcarbamoyl)cyclobutyl)amino)-2-oxoacetyl)-N-(3-(difluoromethyl)phenyl)-6-methyl-2,3-dihydro-1H-pyrrolizine-5-carboxamide]", "values": [
      {"measurement": "t½", "setting": "[2]", "value": 39.5, "unit": "h"}
    ]},
    {"smiles": "CNC(=O)C1(NC(=O)C(=O)c2c(C)c(C(=O)Nc3ccc(F)c(C(F)F)c3)n3c2CCC3)CC(F)(F)C1", "note": "[Example 116, 7-(2-((3,3-difluoro-1-(methylcarbamoyl)cyclobutyl)amino)-2-oxoacetyl)-N-(3-(difluoromethyl)-4-fluorophenyl)-6-methyl-2,3-dihydro-1H-pyrrolizine-5-carboxamide]", "values": [
      {"measurement": "t½", "setting": "[2]", "value": 39.5, "unit": "h"}
    ]}
  ]
}
